According to PubChem BioAssay AID602307 (Southern Research Specialized Biocontainment Screening …, 2012):
Activity calls are given as the source filed them. The rule behind the calls is not given here.

Tested on: VEEV TC-83 infected cells, virus titer reduction
Test: VEEV titer reduction by compounds, cell-based, TC-83 strain, virus titer (AID 602307)
Settings: for log virus titer change: stronger effect = lower value

| Structure (SMILES) | log virus titer change (at 5 µM) | outcome | log virus titer change (titer change, at 10 µM) |
| --- | --- | --- | --- |
| O=C(Cc1cccs1)Nc1nccs1 | -0.062 (inactive) |  |  |
| O=C(Nc1nc2c(s1)CCCC2)c1cccs1 | -0.12 (inactive) |  |  |
| CCOC(=O)c1ccc(Nc2nc(=O)c3cccnc3s2)cc1 |  | active | -3.31 |
| CN1CCN(Cc2nc3ccc([N+](=O)[O-])cc3c(=O)n2-c2ccccc2F)CC1 | < -6.36 |  |  |
| CC(C)N1CCN(Cc2nc3ccc([N+](=O)[O-])cc3c(=O)n2-c2ccccc2F)CC1 | 0.041 (inactive) |  |  |
| Clc1ccc2nnnc(-c3ccccc3)c2c1 |  | active | -4.36 |
| O=c1nc(Nc2ccc(OCc3ccccc3)cc2)sc2ncccc12 |  | active | -3.43 |
| O=c1c2cc([N+](=O)[O-])ccc2nc(CN2CCOCC2)n1-c1ccccc1F | 0.297 (inactive) |  |  |
| Cc1ccccc1C(=O)Nc1ccc2c(c1)CCCN2C(=O)c1cccs1 |  | active | -2.04 |
| O=C(Cc1cccs1)Nc1nc2ccccc2s1 | -0.238 (inactive) |  |  |
| O=c1c2cc([N+](=O)[O-])ccc2nc(CN2CCN(c3ccccc3)CC2)n1-c1ccccc1F |  | active | -1.3 |
| O=C(Cc1ccccc1)Nc1nc2c(s1)CCCC2 | -0.01 (inactive) |  |  |
| CN(C(=O)Cc1cccs1)c1nc2c(s1)CCCC2 | 0.281 (inactive) |  |  |
| O=C(Cc1cccs1)Nc1nc2c(s1)CCCC2 |  | active | -2.14 |
| Cc1cc(Cc2cc(C)cc(C(C)(C)C)c2O)c(O)c(Cc2cc(C)cc(C(C)(C)C)c2O)c1 | -0.734 (inactive) |  |  |
| CCN1CCN(Cc2nc3ccc([N+](=O)[O-])cc3c(=O)n2-c2ccccc2F)CC1 | < -6.36 |  | -5.8 |
| O=C(Oc1ccc2ccccc2c1Br)N1CCCCCC1 |  | active | -2.09 |
